# In PubChem BioAssay AID1259407 (Chemical Carcinogenesis Research Information System (CCRIS), 2018):
# The source made the active and inactive calls. How the calls were made is not given here.
# System: CCRIS mutagenicity, Ames/micronucleus/aberration tests
# Assay: CCRIS mutagenicity studies
smiles,measurement,setting,value
Nc1ccccc1,mutagenic call,"Test System: AMES SALMONELLA TYPHIMURIUM, Strain/Indicator: TA1535, Metabolic Activation: RAT, LIVER, S-9, Method: STANDARD PLATE",inactive; negative
same,mutagenic call,"Test System: AMES SALMONELLA TYPHIMURIUM, Strain/Indicator: TA1537, Metabolic Activation: HAMSTER, LIVER, S-9, AROCLOR 1254, Method: STANDARD PLATE",inactive; negative
same,mutagenic call,"Test System: AMES SALMONELLA TYPHIMURIUM, Strain/Indicator: TA1537, Metabolic Activation: HAMSTER, LIVER, S-9, Method: STANDARD PLATE",inactive; negative
same,mutagenic call,"Test System: AMES SALMONELLA TYPHIMURIUM, Strain/Indicator: TA1537, Metabolic Activation: MOUSE, LIVER, S-9, AROCLOR 1254, Method: STANDARD PLATE",inactive; negative
same,mutagenic call,"Test System: AMES SALMONELLA TYPHIMURIUM, Strain/Indicator: TA1537, Metabolic Activation: MOUSE, LIVER, S-9, Method: STANDARD PLATE",inactive; negative
same,mutagenic call,"Test System: AMES SALMONELLA TYPHIMURIUM, Strain/Indicator: TA1537, Metabolic Activation: NONE, Method: STANDARD PLATE",inactive; negative
same,mutagenic call,"Test System: AMES SALMONELLA TYPHIMURIUM, Strain/Indicator: TA1537, Metabolic Activation: RAT, LIVER, S-9, AROCLOR 1254, Method: STANDARD PLATE",inactive; negative
same,mutagenic call,"Test System: AMES SALMONELLA TYPHIMURIUM, Strain/Indicator: TA1537, Metabolic Activation: RAT, LIVER, S-9, PYRAZOLE, Method: PREINCUBATION",inactive; negative
same,mutagenic call,"Test System: AMES SALMONELLA TYPHIMURIUM, Strain/Indicator: TA1537, Metabolic Activation: RAT, LIVER, S-9, Method: STANDARD PLATE",inactive; negative
same,mutagenic call,"Test System: AMES SALMONELLA TYPHIMURIUM, Strain/Indicator: TA1538, Metabolic Activation: HAMSTER, LIVER, S-9, AROCLOR 1254, Method: STANDARD PLATE",inactive; negative
same,mutagenic call,"Test System: AMES SALMONELLA TYPHIMURIUM, Strain/Indicator: TA1538, Metabolic Activation: HAMSTER, LIVER, S-9, Method: STANDARD PLATE",inactive; negative
same,mutagenic call,"Test System: AMES SALMONELLA TYPHIMURIUM, Strain/Indicator: TA1538, Metabolic Activation: HAMSTER, SPLEEN, S-9, AROCLOR 1254, Method: STANDARD PLATE",inactive; negative
same,mutagenic call,"Test System: AMES SALMONELLA TYPHIMURIUM, Strain/Indicator: TA1538, Metabolic Activation: MOUSE, LIVER, S-9, AROCLOR 1254, Method: STANDARD PLATE",inactive; negative
same,mutagenic call,"Test System: AMES SALMONELLA TYPHIMURIUM, Strain/Indicator: TA1538, Metabolic Activation: MOUSE, LIVER, S-9, Method: STANDARD PLATE",inactive; negative
same,mutagenic call,"Test System: AMES SALMONELLA TYPHIMURIUM, Strain/Indicator: TA1538, Metabolic Activation: NONE, Method: STANDARD PLATE",inactive; negative
same,mutagenic call,"Test System: AMES SALMONELLA TYPHIMURIUM, Strain/Indicator: TA1538, Metabolic Activation: RAT, LIVER, S-9, AROCLOR 1254, Method: PREINCUBATION",inactive; negative
same,mutagenic call,"Test System: AMES SALMONELLA TYPHIMURIUM, Strain/Indicator: TA1538, Metabolic Activation: RAT, LIVER, S-9, AROCLOR 1254, Method: STANDARD PLATE",inactive; negative
same,mutagenic call,"Test System: AMES SALMONELLA TYPHIMURIUM, Strain/Indicator: TA1538, Metabolic Activation: RAT, LIVER, S-9, Method: STANDARD PLATE",inactive; negative
same,mutagenic call,"Test System: AMES SALMONELLA TYPHIMURIUM, Strain/Indicator: TA1538, Metabolic Activation: RAT, SPLEEN, S-9, AROCLOR 1254, Method: STANDARD PLATE",inactive; negative
same,mutagenic call,"Test System: CHINESE HAMSTER V-79, Strain/Indicator: V-79/6-THIOGUANINE, Metabolic Activation: NONE, Method: SUSPENSION/PLATE",inactive; negative
same,mutagenic call,"Test System: CHINESE HAMSTER V-79, Strain/Indicator: V-79/6-THIOGUANINE, Metabolic Activation: RAT, LIVER, HEPATOCYTES, Method: SUSPENSION/PLATE",inactive; negative
same,mutagenic call,"Test System: CHINESE HAMSTER V-79, Strain/Indicator: V-79/6-THIOGUANINE, Metabolic Activation: RAT, LIVER, S-9, PHENOBARBITAL AND BETA-NAPHTHOFLAVONE, Method: SUSPENSION/PLATE",active; positive
same,mutagenic call,"Test System: CHINESE HAMSTER V-79, Strain/Indicator: V-79/8-AZAGUANINE, Metabolic Activation: NONE, Method: SUSPENSION/PLATE",active; positive
same,mutagenic call,"Test System: CHINESE HAMSTER V-79, Strain/Indicator: V-79/8-AZAGUANINE, Metabolic Activation: S-9, Method: SUSPENSION/PLATE",active; positive
same,mutagenic call,"Test System: CHINESE HAMSTER V-79, Strain/Indicator: V-79/OUABAIN, Metabolic Activation: NONE, Method: SUSPENSION/PLATE",inactive; negative
same,mutagenic call,"Test System: CHINESE HAMSTER V-79, Strain/Indicator: V-79/OUABAIN, Metabolic Activation: S-9, Method: SUSPENSION/PLATE",inactive; negative
same,mutagenic call,"Test System: E. COLI, Strain/Indicator: WP2 UVRA, Metabolic Activation: HAMSTER, LIVER, S-9, AROCLOR 1254, Method: PREINCUBATION",inactive; negative
same,mutagenic call,"Test System: E. COLI, Strain/Indicator: WP2 UVRA, Metabolic Activation: HAMSTER, LIVER, S-9, AROCLOR 1254, Method: STANDARD PLATE",inactive; negative
same,mutagenic call,"Test System: E. COLI, Strain/Indicator: WP2 UVRA, Metabolic Activation: HAMSTER, LIVER, S-9, Method: PREINCUBATION",inactive; negative
same,mutagenic call,"Test System: E. COLI, Strain/Indicator: WP2 UVRA, Metabolic Activation: HAMSTER, LIVER, S-9, Method: STANDARD PLATE",inactive; negative
same,mutagenic call,"Test System: E. COLI, Strain/Indicator: WP2 UVRA, Metabolic Activation: MOUSE, LIVER, S-9, AROCLOR 1254, Method: PREINCUBATION",inactive; negative
same,mutagenic call,"Test System: E. COLI, Strain/Indicator: WP2 UVRA, Metabolic Activation: MOUSE, LIVER, S-9, AROCLOR 1254, Method: STANDARD PLATE",inactive; negative
same,mutagenic call,"Test System: E. COLI, Strain/Indicator: WP2 UVRA, Metabolic Activation: MOUSE, LIVER, S-9, Method: PREINCUBATION",inactive; negative
same,mutagenic call,"Test System: E. COLI, Strain/Indicator: WP2 UVRA, Metabolic Activation: MOUSE, LIVER, S-9, Method: STANDARD PLATE",inactive; negative
same,mutagenic call,"Test System: E. COLI, Strain/Indicator: WP2 UVRA, Metabolic Activation: NONE, Method: FLUCTUATION TEST",inactive; negative
same,mutagenic call,"Test System: E. COLI, Strain/Indicator: WP2 UVRA, Metabolic Activation: NONE, Method: PREINCUBATION",inactive; negative
same,mutagenic call,"Test System: E. COLI, Strain/Indicator: WP2 UVRA, Metabolic Activation: NONE, Method: STANDARD PLATE",inactive; negative
same,mutagenic call,"Test System: E. COLI, Strain/Indicator: WP2 UVRA, Metabolic Activation: RAT, LIVER, S-9, AROCLOR 1254, Method: PREINCUBATION",inactive; negative
same,mutagenic call,"Test System: E. COLI, Strain/Indicator: WP2 UVRA, Metabolic Activation: RAT, LIVER, S-9, AROCLOR 1254, Method: STANDARD PLATE",inactive; negative
same,mutagenic call,"Test System: E. COLI, Strain/Indicator: WP2 UVRA, Metabolic Activation: RAT, LIVER, S-9, Method: PREINCUBATION",inactive; negative
same,mutagenic call,"Test System: E. COLI, Strain/Indicator: WP2 UVRA, Metabolic Activation: RAT, LIVER, S-9, Method: STANDARD PLATE",inactive; negative
same,mutagenic call,"Test System: MOUSE LYMPHOMA, Strain/Indicator: L5178Y (TK+/TK-), Metabolic Activation: NONE, Method: SUSPENSION/PLATE",active; positive
same,mutagenic call,"Test System: MOUSE LYMPHOMA, Strain/Indicator: L5178Y (TK+/TK-), Metabolic Activation: RAT, LIVER, S-9, AROCLOR 1254, Method: SUSPENSION/PLATE",active; positive
same,mutagenic call,"Test System: UDS RAT HEPATOCYTES, Strain/Indicator: BROMODEOXYURIDINE INCORP, Metabolic Activation: NONE, Method: FLOW CYTOMETRIC ANALYSIS",inactive; negative
same,mutagenic call,"Test System: UDS RAT HEPATOCYTES, Strain/Indicator: THY INCORP, Metabolic Activation: NONE, Method: AUTORADIOGRAPHY",inactive; negative
same,mutagenic call,"Test System: UDS RODENT HEPATOCYTES, Strain/Indicator: THY INCORP (NON-S-PHASE), Metabolic Activation: NONE, Method: AUTORADIOGRAPHY",inactive; negative
